Assay results reported in ChEMBL document CHEMBL1201862, “PubChem BioAssay data set” (2004).
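Tested at 5 concentrations; 48 h exposure; 96-well plates; endpoints linearly interpolated, else capped at highest concentration. The concentration for 50% growth inhibition is given as GI50.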 Active and inactive are the calls of the source. Rule as the data show it: active = GI50 up to about 1.1 µM and inactive = higher.

Legend:
Assay in all cases: NCI anticancer screen, dose series, 48 h
M19-MEL = tested on: M19-MEL
DLD-1 = tested on: DLD-1
XF498 = tested on: XF498
DMS-273 = tested on: DMS-273
LXFL 529 = tested on: LXFL 529
DMS-114 = tested on: DMS-114
KM-20L2 = tested on: KM-20L2
HOP-18 = tested on: HOP-18
RXF 631 = tested on: RXF 631

Measured: GI50

O=C(CC(=O)C1CCOC1=O)C(=O)Nc1ccc(Cl)cc1Cl (stereo not given)
inactive: M19-MEL > 100 µM | DLD-1 > 100 µM | XF498 > 100 µM | DMS-273 > 100 µM | LXFL 529 > 100 µM | DMS-114 > 100 µM | KM-20L2 > 100 µM

CN1CCS(=O)(=O)NC(Cc2ccccc2)C(=O)N2CCCC2C1=O (stereo not given)
inactive: M19-MEL > 100 µM | DLD-1 > 100 µM | XF498 > 100 µM | DMS-273 > 100 µM | LXFL 529 > 100 µM | DMS-114 > 100 µM | HOP-18 > 100 µM | KM-20L2 > 100 µM

NC(=O)N/N=C1/CCCC/C1=C\c1ccccc1
inactive: RXF 631 > 100 µM | M19-MEL > 100 µM | DLD-1 > 100 µM | DMS-273 > 100 µM | LXFL 529 > 100 µM | DMS-114 > 100 µM | HOP-18 > 100 µM | KM-20L2 > 100 µM

COc1cc(CCc2ccc(OC(C)=O)cc2)cc(OC)c1OC
inactive: M19-MEL > 100 µM | DLD-1 > 100 µM | DMS-273 > 100 µM | LXFL 529 > 100 µM | DMS-114 55 µM | HOP-18 > 100 µM | KM-20L2 > 100 µM

N#C/C(=C\c1ccccc1)C(NO)Nc1ccccc1 (stereo not given)
inactive: M19-MEL > 100 µM | DLD-1 > 100 µM | DMS-273 > 100 µM | LXFL 529 60.3 µM | HOP-18 > 100 µM | KM-20L2 > 100 µM

CCCNCCCC(NC(C)=O)C(=O)NCc1ccccc1 (stereo not given)
inactive: RXF 631 > 100 µM | M19-MEL > 100 µM | DLD-1 > 100 µM | XF498 > 100 µM | DMS-273 > 100 µM | LXFL 529 > 100 µM | DMS-114 > 100 µM | KM-20L2 > 100 µM

COc1ccccc1/C=C1\CCC(CCN2CCOCC2)C1=O (stereo not given)
inactive: RXF 631 92.7 µM | M19-MEL > 100 µM | DLD-1 > 100 µM | XF498 > 100 µM | DMS-273 > 100 µM | LXFL 529 > 100 µM | DMS-114 42 µM | HOP-18 > 100 µM | KM-20L2 75 µM

Oc1cc(-c2ccccc2)nc2cc3c(cc12)OCO3
inactive: RXF 631 2.9 µM | M19-MEL 3.21 µM | DLD-1 6.56 µM | XF498 26.9 µM | DMS-273 11.7 µM | LXFL 529 1.82 µM | HOP-18 > 100 µM | KM-20L2 7.35 µM

Cc1cc(NS(=O)(=O)c2ccc(NC(=O)c3cccc4c(Nc5ccc(S(=O)(=O)Nc6cc(C)on6)cc5)c5ccccc5nc34)cc2)no1
inactive: M19-MEL 35.8 µM | DLD-1 > 100 µM | XF498 42.3 µM | DMS-273 > 100 µM | LXFL 529 24.7 µM | DMS-114 35.2 µM | HOP-18 19.4 µM | KM-20L2 > 100 µM

O=C(Nc1ccc(Cl)c(Cl)c1)C(=O)C(C(=O)c1ccccc1-c1ccccc1)C1OC(=O)c2ccccc21 (stereo not given)
inactive: RXF 631 14.3 µM | M19-MEL 13.1 µM | DLD-1 14.8 µM | XF498 12.8 µM | LXFL 529 8.81 µM | DMS-114 12.1 µM | KM-20L2 22.9 µM

CC(C)(C)N/N=N/c1cn(C2OC(CO)C(O)C2O)c(=O)[nH]c1=O (stereo not given)
inactive: M19-MEL > 100 µM | DLD-1 43.3 µM | DMS-273 > 100 µM | LXFL 529 > 100 µM | DMS-114 40.3 µM | HOP-18 > 100 µM | KM-20L2 > 100 µM

Cc1ccccc1CN1CC=c2ccccc2=N1
inactive: RXF 631 > 100 µM | M19-MEL > 100 µM | DLD-1 > 100 µM | XF498 68.1 µM | DMS-273 > 100 µM | DMS-114 > 100 µM | HOP-18 > 100 µM | KM-20L2 > 100 µM

COC(=O)C(CCC1(C)OCCO1)C(C)=O (stereo not given)
inactive: RXF 631 > 100 µM | M19-MEL > 100 µM | DLD-1 > 100 µM | XF498 > 100 µM | DMS-273 > 100 µM | LXFL 529 > 100 µM | DMS-114 > 100 µM | HOP-18 > 100 µM | KM-20L2 > 100 µM
